Reference: patent US10189796B2, “[4-(1,3,3-trimethyl-2-oxo-3,4-dihydro-1H-quinoxalin-7-yl)phenoxy]ethyloxy compound or salt thereof” (SANTEN PHARMACEUTICAL CO., LTD., priority 2015, dated 2019)

Columns and labels:
[1] = tested on: carrageenin-caused conjunctivitis model of rats; test: Conjunctivitis model evaluation test; type: in vivo, rat; details: 1% suspension, eye dropped 5 μL five times from 1 hour before to 3 hours after induction
Procedure: In order to evaluate an anti-inflammatory action of the present compound to conjunctivitis, an inhibitory effect on edema formation in a carrageenin-caused conjunctivitis model of rats was investigated. Incidentally, this effect was evaluated by calculating an edema formation inhibitory ratio from a weight of the edema in a base agent administered group (control group) and a weight of the edema in the test compound administered group.
A base agent containing a general additive(s) was added to the test compound to prepare test compound suspensions with 0.001% (W/V), 0.003% (W/V), 0.01% (W/V) and 1% (W/V). […]
Four hours after induction, rats under general anesthesia were sacrificed by decapitation method, conjunctival edema areas of both eyes were removed, and the weight of each was measured. The edema formation inhibitory ratio was calculated from the average value of the weight of the edema.
Based on the average value of the weight of the edema of the base agent administered group (control group), the edema formation inhibitory ratio of the test compound suspension eye drop group was calculated by the following calculation formula. […]

[2] = tested on: VEGF-induced retinal elevated vascular permeability model of rabbits; test: Retinal vascular permeability model evaluation test; type: in vivo, rabbit; details: 2% 50 μL/base agent A, intravitreal once
Procedure: In order to evaluate the inhibitory effect of the present compounds on VEGF-induced retinal vascular permeability, the inhibitory effect of the present compound on retinal vascular permeability in a VEGF-induced retinal elevated vascular permeability model of rabbits was evaluated. Incidentally, this effect was evaluated by calculating a leaked amount of the fluorescent dye of the base agent administered group (non-induced group), a leaked amount of the fluorescent dye of the base agent administered group (control group) and a leaked amount of the fluorescent dye of the test compound administered group.
To the test compound was added 0.01% Polysorbate 80/0.5% sodium carboxymethyl cellulose/PBS (hereinafter referred to as “base agent A”.), whereby 2% (W/V) or 8% (W/V) of the test compound suspension was prepared. Or else, to the test compound was added PEG400 (hereinafter referred to as “base agent B”.), whereby 6% (W/W) of the test compound solution was prepared.
VEGF solution: humanVEGF165 was dissolved in PBS to prepare 50 μg/mL of VEGF solution.
• 1) A mixed solution (1 mL/kg) of 5% ketamine hydrochloride injection solution and 2% xylazine hydrochloride injection solution with the ratio of 7:1 was intramuscularly administered to rabbits (Dutch male rabbits), and the rabbits were anesthetized. • 2) Tropicamide-phenylephrine hydrochloride ophthalmic solution (trade name: Midlin P) was eye dropped to maintain pupillary mydriasis, and then, the VEGF solution was intravitreally administered. Incidentally, PBS was intravitreally administered to the base agent administration group (non-induced group). • 3) Fluorescein was intravenously administered 2 days after intravitreal administration of VEGF. Two hours after the intravenous administration of fluorescein, an amount of the leaked fluorescent dye in the vitreous body was measured by using a fluorophotometer. (Test Method) • 1) One week before or 4 weeks before VEGF-induction, 50 μL of the test compound suspension (prepared by the base agent A) was intravitreally administered once, or 5 μL of the test compound solution (prepared by the base agent B) was intravitreally administered once. Incidentally, in the base agent administered group (non-induced group) and the base agent administered group (control group), the base agent A was used in place of the test compound suspension, or the base agent B was used in place of the test compound solution. • 2) Inhibition ratio of elevated retinal vascular permeability was calculated according to the following calculation formula. (Calculation Formula) Inhibitory ratio (%) on elevated retinal vascular permeability of the test compound administered group=100×{1−(average value of a leaked fluorescent dye amount in the test compound administered group−average value of a leaked fluorescent dye amount in the base agent administered group (non-induced group))/(average value of a leaked fluorescent dye amount in the base agent administered group (control group)−average value of a leaked fluorescent dye amount of the base agent administered group (non-induced group))}

[3] = tested on: ovalbumin actively sensitized allergic conjunctivitis model of rabbits; test: Allergic conjunctivitis model evaluation test; type: in vivo, rabbit; details: eye drop 50 μL four times a day for 4 days plus once, 0.5 hour after challenge
Procedure: In order to evaluate an anti-allergic action of the present compounds on allergic conjunctivitis, an inhibitory effect on hyperemia in an ovalbumin actively sensitized allergic conjunctivitis model of rabbits was investigated. Incidentally, this effect was evaluated by calculating an inhibitory ratio from the score of the base agent administered group (control group) and the score of the test compound administered group.
A base agent containing a general additive(s) was added to the test compound to prepare test compound suspensions with 1% (WN) and 3% (W/V).
By using male JW rabbits, ovalbumin (200 μg/mL/physiological saline solution) adsorbed on aluminum hydroxide gel was injected 200 μL per eye into bulbar conjunctiva of both eyes of rabbits, respectively, to perform active sensitization.
After 14 days from sensitization or later, the test compound suspension was eye-dropped four times a day for 4 days, and then, at the next day, it was eye-dropped (instillation dose: 50 μL/time) once to both eyes. Incidentally, the base agent was similarly eye-dropped to the base agent administered group (control group).
One hour after the final eye dropping of the test compound suspension, a physiological saline solution containing 0.02% (W/V) of ovalbumin was administered from rabbit ear vein at a dose of 1.5 mL per 1 kg of rabbit to induce allergic conjunctivitis.
After 0.5 hour of the challenge, the degree of hyperemia symptoms of both ocular conjunctiva of rabbits was evaluated according to the following criteria, and the average value of the total of these scores was calculated. […]

Compound | Inhibitory ratio (%) on elevated vascular permeability ([2]; 4 weeks before VEGF induction) | Inhibitory ratio (%) on elevated vascular permeability ([2]; 1 week before VEGF induction) | also measured
COc1ccc(O)cc1-c1ccc2c(c1COc1cc(F)ccc1C)N(C)C(=O)C(C)(C)N2 [Control compound C, 8-(5-fluoro-2-methylphenoxymethyl)-7-(5-hydroxy-2-methoxyphenyl)-1,3,3-trimethyl-3,4-dihydro-1H-quinoxalin-2-one] | – | – | Edema formation inhibitory ratio (%) [1]: 14%
CCCC(=O)Oc1ccc(-c2ccc3c(c2COc2cc(F)ccc2C)N(C)C(=O)C(C)(C)N3)c(OC)c1 [Control compound D, 7-(4-butyryloxy-2-methoxyphenyl)-8-(5-fluoro-2-methylphenoxymethyl)-1,3,3-trimethyl-3,4-dihydro-1H-quinoxalin-2-one, reference compound] | 38% | – | –
COc1cc(OC[C@H](C)OC(=O)CN(C)C)ccc1-c1ccc2c(c1COc1cc(F)ccc1C)N(C)C(=O)C(C)(C)N2 [Compound 11-1, (S)-7-[4-[2-(N,N-dimethylaminoacetoxy)propyl]oxy-2-methoxyphenyl]-8-(5-fluoro-2-methylphenoxymethyl)-1,3,3-trimethyl-3,4-dihydro-1H-quinoxalin-2-one] | – | – | Eye congestion inhibitory ratio (%) ([3]; 1% suspension): 44%
COc1cc(OC[C@@H](O)CC#N)ccc1-c1ccc2c(c1COc1cc(F)ccc1C)N(C)C(=O)C(C)(C)N2 [Compound 5-2, (S)-7-[4-(3-cyano-2-hydroxypropyl)oxy-2-methoxyphenyl]-8-(5-fluoro-2-methyl-phenoxymethyl)-1,3,3-trimethyl-3,4-dihydro-1H-quinoxalin-2-one] | 91% | 96% | Eye congestion inhibitory ratio (%) ([3]; 3% suspension): 35%
COc1ccc(-c2ccc3c(c2COc2cc(F)ccc2C)N(C)C(=O)C(C)(C)N3)c(OC)c1 [Control compound E, 7-(2,4-dimethoxyphenyl)-8-(5-fluoro-2-methyl-phenoxymethyl)-1,3,3-trimethyl-3,4-dihydro-1H-quinoxalin-2-one, reference compound] | – | 47% | –
